Source: PubChem BioAssay (NCI)
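Briefly, cells in 96-well plates were exposed to five compound concentrations for 48 h, and endpoints were estimated by linear interpolation. GI50: concentration for 50% inhibition of growth. TGI: concentration producing complete growth inhibition.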

Tests used:
Experiment in all cases: NCI tumour cell line growth inhibition, 48 h
HOP-18 NSCLC = system: HOP-18 NSCLC
KM20L2 colon = system: KM20L2 colon
SNB-78 CNS = system: SNB-78 CNS
XF 498 CNS = system: XF 498 CNS
RXF-631 renal = system: RXF-631 renal

| SMILES | TGI (HOP-18 NSCLC) | GI50 (KM20L2 colon) | TGI (KM20L2 colon) | TGI (SNB-78 CNS) | TGI (XF 498 CNS) | TGI (RXF-631 renal) |
| --- | --- | --- | --- | --- | --- | --- |
| O=c1cc(-c2ccc3c(c2)OCO3)[nH]c2cc3c(cc12)OCO3 | > 100 µM | 26.6 µM | 74.5 µM | > 100 µM | > 100 µM | – |
| CCOC(=O)/C(=C/c1ccc(OC)cc1)N(CC)CC | – | – | > 100 µM | > 100 µM | > 100 µM | – |
| N#Cc1cccc(-n2[nH]c(=O)ccc2=O)c1 | – | – | > 100 µM | – | – | – |
| COc1cc2c(cc1O)[C@H](C)C(c1ccc(OC)c(OC)c1)O2 (stereo not given in full) | 20 µM | – | 38.2 µM | 64.7 µM | 21.8 µM | – |
| CCCC/C=C/C=C/C=C/CCCCCCCC(=O)OCC(COC(=O)CCCCCCC/C=C/C1C=CC(CCCC)C(C(=O)O)C1C(=O)O)OC(=O)CCCCCCC/C=C/C=C/C=C/CCCC (stereo not given) (tested in a mixture with another compound) | 47.8 µM | – | 48.1 µM | – | – | – |
| O=C(Nc1c(O)[nH]c(=S)[nH]c1=O)c1ccccc1 | > 100 µM | – | > 100 µM | > 100 µM | – | – |
| O=c1[nH]c2cc(Cl)ccc2nc1/C(=N\Nc1ccccc1)C(O)c1ccc(Cl)c(Cl)c1 (stereo not given) | – | – | > 100 µM | > 100 µM | – | > 100 µM |
| O=C1C(Br)=C(Br)C(=O)c2ccc(=O)ccc21 | 57 µM | – | > 100 µM | > 100 µM | 43.2 µM | 39.7 µM |
| CCn1cnc2c(=S)nc(N)[nH]c21 | – | – | > 100 µM | > 100 µM | – | – |
| COc1cc(-c2cccs2)sc1-c1cccs1 | 17.2 µM | – | 85.1 µM | > 100 µM | – | – |
| C/C(CN1C(=O)c2ccccc2C1=O)=N\NS(=O)(=O)c1ccc(Cl)cc1 | > 100 µM | – | > 100 µM | > 100 µM | > 100 µM | > 100 µM |
| COCCOCOC(CCCCO)c1cc(C)c(O[Si](C)(C)C(C)(C)C)c(C)c1 (stereo not given) | 30.8 µM | – | 17.9 µM | – | – | – |
| CCNC(=O)c1ccc(C)c(N=NN(C)C)c1 | – | – | > 100 µM | > 100 µM | – | – |
| COc1ccc(C2Oc3cc(OC)c(OC)cc3C2CCl)cc1OC (stereo not given) | – | – | > 100 µM | – | > 100 µM | – |
| CNC(=O)NCCCC(NC(C)=O)C(=O)NCc1ccccc1 (stereo not given) | – | – | > 100 µM | > 100 µM | – | > 100 µM |
